14 compounds from patent EP4038059B1, “SUBSTITUTED CARBAZOLE COMPOUNDS” (Bristol-Myers Squibb Company, priority 2019, dated 2021) can be followed below.

As a reminder, the IC50 is the concentration needed to halve the response being measured. Read a high IC50 as weaker potency in that assay.

What all share (assay type): cell-based
One experiment deals with T1, human TLR9 (Homo sapiens, UniProt Q9NR96).
T1 construct: host or cells: HEK-Blue cells
T1 sequence (Q9NR96 26-1032): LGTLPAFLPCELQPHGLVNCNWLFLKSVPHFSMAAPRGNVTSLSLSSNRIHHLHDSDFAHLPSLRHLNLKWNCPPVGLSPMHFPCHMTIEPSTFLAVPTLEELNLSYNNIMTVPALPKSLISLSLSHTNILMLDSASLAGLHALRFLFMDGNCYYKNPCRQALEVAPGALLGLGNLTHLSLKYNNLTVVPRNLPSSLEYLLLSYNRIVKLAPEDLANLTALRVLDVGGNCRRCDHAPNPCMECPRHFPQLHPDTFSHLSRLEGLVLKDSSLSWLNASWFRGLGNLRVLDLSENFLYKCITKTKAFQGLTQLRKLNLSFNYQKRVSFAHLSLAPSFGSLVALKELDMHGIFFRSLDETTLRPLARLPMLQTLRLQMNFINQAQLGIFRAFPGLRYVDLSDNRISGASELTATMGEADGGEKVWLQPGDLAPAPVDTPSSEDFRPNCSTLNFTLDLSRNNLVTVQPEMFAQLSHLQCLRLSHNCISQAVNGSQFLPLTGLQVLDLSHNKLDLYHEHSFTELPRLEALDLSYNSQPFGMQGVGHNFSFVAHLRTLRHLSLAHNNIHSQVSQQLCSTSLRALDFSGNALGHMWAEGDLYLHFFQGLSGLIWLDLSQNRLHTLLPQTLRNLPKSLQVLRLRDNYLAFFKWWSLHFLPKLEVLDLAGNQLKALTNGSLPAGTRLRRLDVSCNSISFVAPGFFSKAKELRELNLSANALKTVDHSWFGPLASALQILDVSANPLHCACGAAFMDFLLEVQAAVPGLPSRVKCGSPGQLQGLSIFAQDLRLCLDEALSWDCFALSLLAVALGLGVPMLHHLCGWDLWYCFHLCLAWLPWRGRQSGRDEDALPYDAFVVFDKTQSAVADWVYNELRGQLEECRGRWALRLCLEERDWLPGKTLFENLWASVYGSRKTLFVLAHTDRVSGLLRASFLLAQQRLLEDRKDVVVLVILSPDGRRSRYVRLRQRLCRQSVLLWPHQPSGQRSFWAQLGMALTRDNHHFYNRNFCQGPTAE
The experiment can be described thus: TLR9 inhibition reporter assay (HEK-Blue SEAP). Particulars: HEK-Blue cells overexpressing human TLR9, stimulated with ODN2006 5 nM, 22 h incubation. Here is the method:
(§1) HEK-Blue™-cells (Invivogen) overexpressing human TLR7, TLR8 or TLR9 receptors were used for screening inhibitors of these receptors using an inducible SEAP (secreted embryonic alkaline phosphatase) reporter gene under the control of the IFN-β minimal promoter fused to five NF-κB and AP-1-binding sites. Briefly, cells are seeded into Greiner 384 well plates (15000 cells per well for TLR7, 20,000 for TLR8 and 25,000 for TLR9) and then treated with test compounds in DMSO to yield a final dose response concentration range of 0.05 nM - 50 µM. After a 30 minute compound pre-treatment at room temperature, the cells are then stimulated with a TLR7 ligand (gardiquimod at a final concentration of 7.5 µM), TLR8 ligand (R848 at a final concentration of 15.9 µM) or TLR9 ligand (ODN2006 at a final concentration of 5 nM) to activate NF-κB and AP-1 which induce the production of SEAP. After a 22 h incubation at 37°C, 5% CO2, SEAP levels are determined with the addition of HEK-Blue™ Detection reagent (Invivogen), a cell culture medium that allows for detection of SEAP, according to manufacturer's specifications. The percent inhibition is determined as the % reduction in the HEK-Blue signal present in wells treated with agonist plus DMSO alone compared to wells treated with a known inhibitor.
On the technique in general: A reporter such as luciferase makes a cellular process visible.

In another experiment the target is T2, human TLR8 (Homo sapiens, UniProt Q9NR97).
T2 construct: host or cells: HEK-Blue cells
T2 sequence (Q9NR97 27-1041): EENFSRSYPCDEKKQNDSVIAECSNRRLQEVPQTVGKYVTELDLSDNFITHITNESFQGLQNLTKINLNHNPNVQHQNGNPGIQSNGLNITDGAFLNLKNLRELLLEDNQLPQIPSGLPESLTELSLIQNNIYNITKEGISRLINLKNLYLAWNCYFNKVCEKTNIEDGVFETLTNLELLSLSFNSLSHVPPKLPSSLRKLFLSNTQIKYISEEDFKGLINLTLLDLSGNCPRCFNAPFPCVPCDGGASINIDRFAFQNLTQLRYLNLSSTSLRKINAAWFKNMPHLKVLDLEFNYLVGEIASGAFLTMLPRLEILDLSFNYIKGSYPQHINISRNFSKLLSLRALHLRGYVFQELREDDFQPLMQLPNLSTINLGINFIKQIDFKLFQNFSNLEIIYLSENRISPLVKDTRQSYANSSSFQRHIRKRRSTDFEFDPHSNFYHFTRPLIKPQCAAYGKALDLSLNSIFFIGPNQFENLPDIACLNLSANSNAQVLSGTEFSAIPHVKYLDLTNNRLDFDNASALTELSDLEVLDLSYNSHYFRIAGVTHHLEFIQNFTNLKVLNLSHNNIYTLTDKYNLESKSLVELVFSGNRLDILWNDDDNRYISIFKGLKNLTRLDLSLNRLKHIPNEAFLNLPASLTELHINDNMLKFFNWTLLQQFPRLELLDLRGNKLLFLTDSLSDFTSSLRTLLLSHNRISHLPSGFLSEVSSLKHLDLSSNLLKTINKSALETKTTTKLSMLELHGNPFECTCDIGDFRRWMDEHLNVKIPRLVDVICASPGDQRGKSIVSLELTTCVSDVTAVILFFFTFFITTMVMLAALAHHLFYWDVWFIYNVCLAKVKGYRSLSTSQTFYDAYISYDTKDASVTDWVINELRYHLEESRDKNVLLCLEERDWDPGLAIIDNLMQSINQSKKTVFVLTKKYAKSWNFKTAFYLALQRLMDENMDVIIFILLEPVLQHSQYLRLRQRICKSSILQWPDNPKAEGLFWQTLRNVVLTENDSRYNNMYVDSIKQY
The experiment can be described thus: TLR8 inhibition reporter assay (HEK-Blue SEAP). The note with it: HEK-Blue cells overexpressing human TLR8, stimulated with R848 15.9 µM, 22 h incubation. Here is the method: as §1

In the next experiment the target is T3, human TLR7 (Homo sapiens, UniProt Q9NYK1).
T3 construct: host or cells: HEK-Blue cells
T3 sequence (Q9NYK1 27-1049): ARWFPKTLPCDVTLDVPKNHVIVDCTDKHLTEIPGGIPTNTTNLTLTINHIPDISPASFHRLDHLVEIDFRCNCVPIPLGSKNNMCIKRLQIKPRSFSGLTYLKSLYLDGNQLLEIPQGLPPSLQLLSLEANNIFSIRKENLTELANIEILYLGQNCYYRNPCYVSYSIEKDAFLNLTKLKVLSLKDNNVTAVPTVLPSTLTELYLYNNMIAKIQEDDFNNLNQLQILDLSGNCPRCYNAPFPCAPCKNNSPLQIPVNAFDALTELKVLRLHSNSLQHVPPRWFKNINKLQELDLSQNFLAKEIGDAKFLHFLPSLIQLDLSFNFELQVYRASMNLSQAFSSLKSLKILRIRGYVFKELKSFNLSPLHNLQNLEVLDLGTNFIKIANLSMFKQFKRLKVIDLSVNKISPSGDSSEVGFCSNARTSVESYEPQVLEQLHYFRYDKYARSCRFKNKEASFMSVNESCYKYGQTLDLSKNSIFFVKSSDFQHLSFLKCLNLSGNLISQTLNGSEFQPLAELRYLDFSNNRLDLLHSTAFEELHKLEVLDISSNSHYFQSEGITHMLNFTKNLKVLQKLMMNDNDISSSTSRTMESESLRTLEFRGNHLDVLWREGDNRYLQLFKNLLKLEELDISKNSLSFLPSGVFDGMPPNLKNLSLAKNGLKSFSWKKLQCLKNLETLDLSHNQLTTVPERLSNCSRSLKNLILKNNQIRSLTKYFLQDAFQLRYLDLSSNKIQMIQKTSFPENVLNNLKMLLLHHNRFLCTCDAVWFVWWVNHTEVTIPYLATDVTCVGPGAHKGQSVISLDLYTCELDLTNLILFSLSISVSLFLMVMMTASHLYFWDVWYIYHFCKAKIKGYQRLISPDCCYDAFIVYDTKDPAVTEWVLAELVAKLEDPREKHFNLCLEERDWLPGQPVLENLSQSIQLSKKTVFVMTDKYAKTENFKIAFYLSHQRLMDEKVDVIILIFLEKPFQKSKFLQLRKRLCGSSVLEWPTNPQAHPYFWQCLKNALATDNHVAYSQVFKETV
The experiment is described as follows: TLR7 inhibition reporter assay (HEK-Blue SEAP). Particulars: HEK-Blue cells overexpressing human TLR7, stimulated with gardiquimod 7.5 µM, 22 h incubation. As for the experimental part: as §1

Turning to `COc1cc(-c2cc3[nH]c4ccc(C5CCNCC5)cc4c3c(C)c2C)cn2ncnc12` [Example 15, 2-(8-Methoxy-[1,2,4]triazolo[1,5-a]pyridin-6-yl)-3,4-dimethyl-6-(piperidin-4-yl)-9H-carbazole], the values for the IC50 at human TLR9, at human TLR8 and against human TLR7 were 95 nM, 0.8 nM and 0.8 nM, respectively.

Turning to `Cc1cc2c(cc1-c1cn(C)c(=O)c(C)c1C)[nH]c1ccc(C3CCNCC3)cc12` [Example 16], the figures for the 50% inhibitory concentration (IC50) on human TLR9, on human TLR8 and against human TLR7 were 158 nM, 5.5 nM and 35 nM, respectively.

Turning to `COc1cc(-c2cc3[nH]c4ccc(C5CCNCC5)cc4c3cc2C)cn2ncnc12` [Example 17], the IC50 on human TLR9 amounted to 108 nM; on human TLR8, 1.4 nM; on human TLR7, 1.9 nM.

Consider `Cc1c(-c2cc(C)c3c(c2)[nH]c2ccc(C4CCN(CC(C)(C)O)CC4)cc23)cn(C)c(=O)c1C` [Example 18, 5-(6-(1-(2-Hydroxy-2-methylpropyl)piperidin-4-yl)-4-methyl-9H-carbazol-2-yl)-1,3,4-trimethylpyridin-2(1H)-one], for which the IC50 was 650 nM at human TLR9, 0.9 nM at human TLR8 and 3.2 nM on human TLR7.

For `Cc1cc(-c2cc(C)c3ncnn3c2)cc2[nH]c3ccc(C4CCN(CC(C)(C)O)CC4)cc3c12` [Example 19], the IC50 on human TLR9 was found to be 416 nM; against human TLR8, 4 nM; at human TLR7, 1.8 nM.

In the case of `COc1cc(-c2cc(C)c3c(c2)[nH]c2ccc(C4CCN(CC(C)(C)O)CC4)cc23)cn2ncnc12` [Example 20], the IC50 at human TLR9 worked out at 224 nM; against human TLR8, 2.1 nM; on human TLR7, 1.9 nM.

As for `Cc1cc(-c2cc(C)c3c(c2)[nH]c2ccc(C4CCN(CC(C)(C)O)CC4)cc23)cc(C)n1` [Example 21], the IC50 is 60 nM against human TLR9, 12 nM on human TLR8 and 1.5 nM against human TLR7.

Regarding `Cc1cc2c(cc1-c1cc(C)c3ncnn3c1)[nH]c1ccc(C3CCN(CC(C)(C)O)CC3)cc12` [Example 22], the figures for the IC50 at human TLR9, against human TLR8 and against human TLR7 were 342 nM, 0.7 nM and 1.6 nM, respectively.

For the compound `COc1cc(-c2cc3[nH]c4ccc(C5CCN(CC(C)(C)O)CC5)cc4c3cc2C)cn2ncnc12` [Example 23], the IC50 was determined as 259 nM against human TLR9, 0.9 nM against human TLR8 and 4.1 nM on human TLR7.

In the case of `Cc1cc2c(cc1-c1cn(C)c(=O)c(C)c1C)[nH]c1ccc(C3CCN(CC(C)(C)O)CC3)cc12` [Example 24], the IC50 on human TLR9 stood at 388 nM; on human TLR8, 1.5 nM; at human TLR7, 68 nM.

As for `COc1cc(-c2cc3[nH]c4ccc(C5CCN(CC(C)(C)O)CC5)cc4c3c(C)c2C)cn2ncnc12` [Example 25], the IC50 at human TLR9 was found to be 264 nM; at human TLR8 it was 0.4 nM; at human TLR7, 1.8 nM.

In the case of `COc1cc(-c2cc3[nH]c4ccc(C5CCCNC5)cc4c3c(C)c2C)cn2ncnc12` (stereo not drawn) [Example 26, 2-(8-methoxy-[1,2,4]triazolo[1,5-a]pyridin-6-yl)-3,4-dimethyl-6-(piperidin-3-yl)-9H-carbazole], the IC50 at human TLR9 worked out at 271 nM; on human TLR8 it was 1.6 nM; at human TLR7 it was 1.3 nM.

For `COc1cc(-c2cc3[nH]c4ccc(C5CCCN(C(=O)CN(C)C)C5)cc4c3c(C)c2C)cn2ncnc12` (stereo not drawn) [Example 27, 2-(dimethylamino)-1-(3-(7-(8-methoxy-[1,2,4]triazolo[1,5-a]pyridin-6-yl)-5,6-dimethyl-9H-carbazol-3-yl)piperidin-1-yl)ethan-1-one], the figures for the IC50 against human TLR9, against human TLR8 and at human TLR7 were 1170 nM, 3.8 nM and 3.3 nM, respectively.

With `COc1cc(-c2cc3[nH]c4ccc(C5CCCN(C6CCOCC6)C5)cc4c3c(C)c2C)cn2ncnc12` (stereo not drawn) [Example 28, 2-(8-methoxy-[1,2,4]triazolo[1,5-a]pyridin-6-yl)-3,4-dimethyl-6-(1-(tetrahydro-2H-pyran-4-yl)piperidin-3-yl)-9H-carbazole], the IC50 against human TLR9 amounted to 523 nM; on human TLR8, 0.7 nM; against human TLR7, 7.8 nM.
